Patent US10954214B2 (Janssen Pharmaceutica NV, priority 2016, dated 2021)

Assays:
[1] = test system: IL6 secretion by OCI-LY3 ABC-DLBCL cells; test: Human IL6 Mesoscale assay (OCI-LY3); type: cell-based; conditions: Homo sapiens, 24 h
Method in brief: (§1)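 100,000 cells/well treated with compound in 9 twofold steps from 15 μM to 58.6 nM (0.3% DMSO) for 24 h at 37° C; supernatant cytokine measured by MSD electrochemiluminescence sandwich immunoassay. DMSO wells set maximum signal, BTK inhibitor RN486 (30 nM to 131 pM) set maximum inhibition.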

TMD8 cells = test: 4-day proliferation assay, TMD8; type: cell-based; conditions: Homo sapiens, 96 h, 4 days incubation, CellTiterGLO, read-out: Anti-proliferation: TMD-8 IC50
Method in brief: (§2)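 Each line was plated at 10,000 cells per well for linear growth, with no beta-mercaptoethanol during the assay. OCI-Ly3 cells were below passage 10.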

OCI-Ly3 cells = test: 4-day proliferation assay, OCI-Ly3; type: cell-based, human; conditions: Homo sapiens, 96 h, 4 days incubation, CellTiterGLO, read-out: Anti-proliferation: OCI-LY-3 IC50
Method in brief: as §2

[2] = biological target: full-length MALT1 protein (Strep-MALT1(1-824)-His) (Homo sapiens (Human), UniProt Q9UDY8); test: MALT1 Biochemical Protease Assay (Ac-LRSR-AMC substrate); conditions: 10 nM FL MALT1, 200 μM Ac-LRSR-AMC, 4 h at RT; read-out: MALT1_Biochemical activity (Ac-LRSR-amc) IC50
Method in brief: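 Fluorescence from AMC release off the quenched LRSR substrate was read after a 4 h reaction at RT. Values were normalised to no-enzyme and uninhibited controls and fitted for IC50 and Hill coefficient.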

[3] = test system: IL10 secretion by OCI-LY3 ABC-DLBCL cells; test: Human IL10 Mesoscale assay (OCI-LY3); type: cell-based; conditions: Homo sapiens, 24 h
Method in brief: as §1

[4] = test system: IL10 secretion by TMD8 ABC-DLBCL cells; test: Human IL10 Mesoscale assay (TMD-8); type: cell-based; conditions: Homo sapiens, TMD8; TMD-8 cells, 24 h
Method in brief: as §1

[5] = test system: IL6 secretion by TMD8 ABC-DLBCL cells; test: Human IL6 Mesoscale assay (TMD-8); type: cell-based; conditions: Homo sapiens, TMD8; TMD-8 cells, 24 h
Method in brief: as §1

Chain of full-length MALT1 protein (Strep-MALT1(1-824)-His) (Q9UDY8 whole entry): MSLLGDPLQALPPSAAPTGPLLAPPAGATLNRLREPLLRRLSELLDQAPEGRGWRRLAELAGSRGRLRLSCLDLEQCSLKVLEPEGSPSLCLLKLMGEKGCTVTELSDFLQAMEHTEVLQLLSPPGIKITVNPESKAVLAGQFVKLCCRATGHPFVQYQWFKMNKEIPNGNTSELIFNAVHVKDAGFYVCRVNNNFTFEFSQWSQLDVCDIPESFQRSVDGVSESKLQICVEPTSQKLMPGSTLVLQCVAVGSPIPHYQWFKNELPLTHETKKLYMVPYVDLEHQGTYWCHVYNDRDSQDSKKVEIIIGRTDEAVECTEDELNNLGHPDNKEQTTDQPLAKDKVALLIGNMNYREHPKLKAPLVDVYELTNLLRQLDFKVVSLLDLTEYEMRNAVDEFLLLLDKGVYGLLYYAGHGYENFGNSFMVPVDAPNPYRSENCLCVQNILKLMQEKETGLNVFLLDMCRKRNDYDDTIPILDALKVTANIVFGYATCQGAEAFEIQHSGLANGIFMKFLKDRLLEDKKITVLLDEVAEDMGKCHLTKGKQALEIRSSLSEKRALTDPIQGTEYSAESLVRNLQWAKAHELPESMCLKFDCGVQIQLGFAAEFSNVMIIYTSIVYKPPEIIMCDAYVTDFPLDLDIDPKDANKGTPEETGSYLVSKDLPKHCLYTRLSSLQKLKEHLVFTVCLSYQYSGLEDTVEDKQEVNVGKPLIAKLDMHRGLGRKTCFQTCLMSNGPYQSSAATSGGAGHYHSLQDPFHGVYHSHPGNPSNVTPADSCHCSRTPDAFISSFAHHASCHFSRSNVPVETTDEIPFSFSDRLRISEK

For `Cc1nc(-n2nccn2)c(Cl)cc1NC(=O)c1cnn(-c2cccn3nccc23)c1C(F)(F)F`, the IC50 [1] was 115 nM, the IC50 (TMD8 cells) was 3020 nM and the IC50 (OCI-Ly3 cells) was 641 nM. The IC50 [2] was 26 nM and the IC50 [3] was 91 nM.
With `O=C(O)c1cnn(-c2ncc(NC(=O)c3cnn(-c4cccc5ncccc45)c3C(F)(F)F)cc2Cl)n1` [Cpd 109, 2-(3-chloro-5-(1-(quinolin-5-yl)-5-(trifluoromethyl)-1H-pyrazole-4-carboxamido)pyridin-2-yl)-2H-1,2,3-triazole-4-carboxylic acid] the IC50 [1] was 28 nM, the IC50 (TMD8 cells) was over 20000 nM and the IC50 (OCI-Ly3 cells) was over 20000 nM. The IC50 [2] was 10 nM and the IC50 [3] was 31 nM.
`COCc1cnn(-c2ncc(NC(=O)c3cnn(-c4cccc5ncccc45)c3C(F)(F)F)cc2Cl)n1` [Cpd 173, N-(5-chloro-6-(4-(methoxymethyl)-2H-1,2,3-triazol-2-yl)pyridin-3-yl)-1-(quinolin-5-yl)-5-(trifluoromethyl)-1H-pyrazole-4-carboxamide] showed an IC50 (TMD8 cells) of 2690 nM, an IC50 (OCI-Ly3 cells) of 1730 nM and an IC50 [2] of 59 nM. For the same compound, the IC50 [4] was 240 nM and the IC50 [5] was 550 nM.
With `O=C(Nc1ccc(-n2cc(CO)cn2)c(Cl)c1)c1cnn(-c2cccc3ncccc23)c1C(F)(F)F` [Cpd 175, N-(3-chloro-4-(4-(hydroxymethyl)-1H-pyrazol-1-yl)phenyl)-1-(quinolin-5-yl)-5-(trifluoromethyl)-1H-pyrazole-4-carboxamide] the IC50 (TMD8 cells) was 1230 nM, the IC50 (OCI-Ly3 cells) was 1080 nM and the IC50 [2] was 47 nM. The IC50 [4] was 204 nM and the IC50 [5] was over 3020 nM.
`N#Cc1cc(NC(=O)c2cnn(-c3cccc4ncccc34)c2C(F)(F)F)cnc1-n1ncc(CO)n1` [Cpd 177, N-(5-cyano-6-(4-(hydroxymethyl)-2H-1,2,3-triazol-2-yl)pyridin-3-yl)-1-(quinolin-5-yl)-5-(trifluoromethyl)-1H-pyrazole-4-carboxamide] showed an IC50 (TMD8 cells) of 6610 nM, an IC50 (OCI-Ly3 cells) of 1710 nM and an IC50 [2] of 44 nM. For the same compound, the IC50 [4] was 363 nM and the IC50 [5] was 933 nM.
`O=C(Nc1cnc(-n2cc(CO)cn2)c(Cl)c1)c1cnn(-c2cccc3c(=O)[nH]ccc23)c1C(F)(F)F` [Cpd 182, N-(5-chloro-6-(4-(hydroxymethyl)-1H-pyrazol-1-yl)pyridin-3-yl)-1-(1-oxo-1,2-dihydroisoquinolin-5-yl)-5-(trifluoromethyl)-1H-pyrazole-4-carboxamide] gave an IC50 (TMD8 cells) of 5250 nM, an IC50 (OCI-Ly3 cells) of 3140 nM and an IC50 [2] of 35 nM. It also gave an IC50 [4] of 2510 nM and an IC50 [5] of 7590 nM.
Work on `Cn1nc(-c2ncc(NC(=O)c3cnn(-c4cccc5c(=O)[nH]ccc45)c3C(F)(F)F)cc2Cl)cc1N` [Cpd 183, N-(6-(5-amino-1-methyl-1H-pyrazol-3-yl)-5-chloropyridin-3-yl)-1-(1-oxo-1,2-dihydroisoquinolin-5-yl)-5-(trifluoromethyl)-1H-pyrazole-4-carboxamide] yielded an IC50 (TMD8 cells) of over 20000 nM, an IC50 (OCI-Ly3 cells) of 3570 nM and an IC50 [2] of 35 nM. It also gave an IC50 [4] of 2140 nM and an IC50 [5] of 6610 nM.
`O=C(Nc1cnc(-n2nccn2)c(Cl)c1)c1cnn(-c2c[nH]c(=O)c3c(F)cccc23)c1C(F)(F)F` [Cpd 184, N-(5-chloro-6-(2H-1,2,3-triazol-2-yl)pyridin-3-yl)-1-(8-fluoro-1-oxo-1,2-dihydroisoquinolin-4-yl)-5-(trifluoromethyl)-1H-pyrazole-4-carboxamide] was tested, and the IC50 (TMD8 cells) was 6030 nM, the IC50 (OCI-Ly3 cells) was 585 nM and the IC50 [2] was 32 nM. It also gave an IC50 [4] of 1000 nM and an IC50 [5] of 4270 nM.
For `O=C(Nc1cnc(-n2nccn2)c(Cl)c1)c1cnn(-c2ccc(F)c3nccn23)c1C(F)(F)F` [Cpd 202, N-(5-chloro-6-(2H-1,2,3-triazol-2-yl)pyridin-3-yl)-1-(8-fluoroimidazo[1,2-a]pyridin-5-yl)-5-(trifluoromethyl)-1H-pyrazole-4-carboxamide], the IC50 (TMD8 cells) was 2340 nM, the IC50 (OCI-Ly3 cells) was 1360 nM and the IC50 [2] was 51 nM. The IC50 [4] was 2950 nM and the IC50 [5] was 5010 nM.
For `N#Cc1cc(NC(=O)c2cnn(-c3ccc(F)c4nccn34)c2C(F)(F)F)cnc1-n1nccn1` [Cpd 204, N-(5-cyano-6-(2H-1,2,3-triazol-2-yl)pyridin-3-yl)-1-(8-fluoroimidazo[1,2-a]pyridin-5-yl)-5-(trifluoromethyl)-1H-pyrazole-4-carboxamide], the IC50 (TMD8 cells) was 5890 nM, the IC50 (OCI-Ly3 cells) was 1720 nM and the IC50 [2] was 35 nM. The IC50 [4] was 1150 nM and the IC50 [5] was 525 nM.
With `O=C(Nc1cnc(-n2nccn2)c(Cl)c1)c1cnn(-c2cccc3nc(Cl)ccc23)c1C(F)(F)F` [Cpd 221, N-(5-chloro-6-(2H-1,2,3-triazol-2-yl)pyridin-3-yl)-1-(2-chloroquinolin-5-yl)-5-(trifluoromethyl)-1H-pyrazole-4-carboxamide] the IC50 (TMD8 cells) was 2570 nM, the IC50 (OCI-Ly3 cells) was 912 nM and the IC50 [2] was 2040 nM. The IC50 [4] was 331 nM and the IC50 [5] was 331 nM.
Work on `N#Cc1cc(NC(=O)c2cnn(-c3ccc(F)c4ccccc34)c2C(F)(F)F)cnc1-n1nccn1` [Cpd 312, N-(5-cyano-6-(2H-1,2,3-triazol-2-yl)pyridin-3-yl)-1-(4-fluoronaphthal-1-yl)-5-(trifluoromethyl)-1H-pyrazole-4-carboxamide] yielded an IC50 (TMD8 cells) of 501 nM, an IC50 (OCI-Ly3 cells) of 516 nM and an IC50 [2] of 49 nM. For the same compound, the IC50 [4] was 2460 nM and the IC50 [5] was 8320 nM.
In the case of `COC(=O)c1ccc(NC(=O)c2cnn(-c3cccc4ncccc34)c2C(F)(F)F)cc1C#N` [Cpd 313, methyl 2-cyano-4-(1-(quinolin-5-yl)-5-(trifluoromethyl)-1H-pyrazole-4-carboxamido)benzoate], the IC50 (TMD8 cells) is reported as 7940 nM, the IC50 (OCI-Ly3 cells) is reported as 939 nM and the IC50 [2] is reported as 43 nM. It also gave an IC50 [4] of 4170 nM and an IC50 [5] of 7240 nM.
`O=C(Nc1cnc(-n2nccn2)c(Cl)c1)c1cnn(-c2cnc(CO)c3ccccc23)c1C(F)(F)F` [Cpd 385, N-(5-chloro-6-(2H-1,2,3-triazol-2-yl)pyridin-3-yl)-1-(1-(hydroxymethyl)isoquinolin-4-yl)-5-(trifluoromethyl)-1H-pyrazole-4-carboxamide] gave an IC50 (TMD8 cells) of 1510 nM, an IC50 (OCI-Ly3 cells) of 837 nM and an IC50 [2] of 54 nM. For the same compound, the IC50 [4] was 166 nM and the IC50 [5] was 214 nM.
In the case of `NC(=O)c1ncc(-n2ncc(C(=O)Nc3cnc(-n4nccn4)c(Cl)c3)c2C(F)(F)F)c2ccsc12` [Cpd 391, 4-(4-((5-chloro-6-(2H-1,2,3-triazol-2-yl)pyridin-3-yl)carbamoyl)-5-(trifluoromethyl)-1H-pyrazol-1-yl)thieno[2,3-c]pyridine-7-carboxamide], the IC50 (TMD8 cells) is reported as 676 nM, the IC50 (OCI-Ly3 cells) is reported as 505 nM and the IC50 [2] is reported as 7 nM. The IC50 [4] was 31 nM and the IC50 [5] was 45 nM.
`O=C(Nc1cnc(-n2nccn2)c(Cl)c1)c1cnn(-c2cc[n+]([O-])c3ccccc23)c1C(F)(F)F` [Cpd 405, 4-(4-((5-chloro-6-(2H-1,2,3-triazol-2-yl)pyridin-3-yl)carbamoyl)-5-(trifluoromethyl)-1H-pyrazol-1-yl)quinoline 1-oxide] showed an IC50 (TMD8 cells) of 4360 nM, an IC50 (OCI-Ly3 cells) of 513 nM and an IC50 [2] of 44 nM. It also gave an IC50 [4] of 178 nM and an IC50 [5] of 457 nM.
In the case of `N#Cc1nccc2c(-n3ncc(C(=O)Nc4cnc(-n5nccn5)c(Cl)c4)c3C(F)(F)F)cccc12` [Cpd 411, N-(5-chloro-6-(2H-1,2,3-triazol-2-yl)pyridin-3-yl)-1-(1-cyanoisoquinolin-5-yl)-5-(trifluoromethyl)-1H-pyrazole-4-carboxamide], the IC50 (TMD8 cells) is reported as 871 nM, the IC50 (OCI-Ly3 cells) is reported as 486 nM and the IC50 [2] is reported as 33 nM. The IC50 [4] was 2340 nM and the IC50 [5] was 2510 nM.
Work on `Cn1c(=O)cc(-n2ncc(C(=O)Nc3cnc(-n4nccn4)c(Cl)c3)c2C(F)(F)F)c2ccccc21` [Cpd 419, N-(5-chloro-6-(2H-1,2,3-triazol-2-yl)pyridin-3-yl)-1-(1-methyl-2-oxo-1,2-dihydroquinolin-4-yl)-5-(trifluoromethyl)-1H-pyrazole-4-carboxamide] yielded an IC50 [1] of 1660 nM, an IC50 (TMD8 cells) of 5750 nM and an IC50 (OCI-Ly3 cells) of 1120 nM. It also gave an IC50 [2] of 15 nM.
Compound `N#Cc1cc(NC(=O)c2cnn(-c3nccn4nccc34)c2C(F)(F)F)cnc1-n1nccn1` [Cpd 425, N-(5-cyano-6-(2H-1,2,3-triazol-2-yl)pyridin-3-yl)-1-(pyrazolo[1,5-a]pyrazin-4-yl)-5-(trifluoromethyl)-1H-pyrazole-4-carboxamide] has an IC50 (TMD8 cells) of 11000 nM, an IC50 (OCI-Ly3 cells) of 905 nM and an IC50 [2] of 389 nM. The IC50 [4] was 112 nM and the IC50 [5] was 339 nM.
Work on `O=C(Nc1cnc(-c2nccs2)c(Cl)c1)c1cnn(-c2cncc3ccccc23)c1C(F)(F)F` [compound 63, N-(5-chloro-6-(thiazol-2-yl)pyridin-3-yl)-1-(isoquinolin-4-yl)-5-(trifluoromethyl)-1H-pyrazole-4-carboxamide] yielded an IC50 (TMD8 cells) of over 7940 nM, an IC50 (OCI-Ly3 cells) of about 1150 nM and an IC50 [2] of 295 nM. It also gave an IC50 [4] of 1440 nM and an IC50 [5] of 2040 nM.
